This is an account of results in patent publication US12653787B2, “Pharmaceutical oral dosage form of Q203” (QURIENT CO., LTD., priority 2019, dated 2026).

A short description of data set [1]: Solubility of Q203 in aqueous solutions (background statement). Format: physicochemical.
The next data set has as its target cytochrome bc1 (Mycobacterium tuberculosis, UniProt P9WP37). Particulars: by inhibiting cytochrome bc1 activity; Pethe et al., Nature Medicine 2013; cited from earlier work.

cytochrome bc1, sequence (P9WP37 whole entry, looked up): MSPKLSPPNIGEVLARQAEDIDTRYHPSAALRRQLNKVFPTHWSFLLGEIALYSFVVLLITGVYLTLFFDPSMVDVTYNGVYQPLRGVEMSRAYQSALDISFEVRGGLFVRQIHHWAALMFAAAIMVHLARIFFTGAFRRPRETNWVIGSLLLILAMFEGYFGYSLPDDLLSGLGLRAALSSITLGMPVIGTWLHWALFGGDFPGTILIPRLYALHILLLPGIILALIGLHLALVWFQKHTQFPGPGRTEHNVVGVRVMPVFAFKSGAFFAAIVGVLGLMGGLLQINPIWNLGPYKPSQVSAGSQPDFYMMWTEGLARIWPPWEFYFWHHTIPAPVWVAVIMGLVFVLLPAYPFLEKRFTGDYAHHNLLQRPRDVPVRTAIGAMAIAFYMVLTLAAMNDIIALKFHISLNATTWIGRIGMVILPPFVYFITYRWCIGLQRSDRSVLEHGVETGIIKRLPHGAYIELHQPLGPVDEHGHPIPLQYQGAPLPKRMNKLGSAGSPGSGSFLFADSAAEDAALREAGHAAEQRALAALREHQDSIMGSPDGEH

In the case of `CCc1nc2ccc(Cl)cn2c1C(=O)NCc1ccc(N2CCC(c3ccc(OC(F)(F)F)cc3)CC2)cc1` [Example Q203, 6-chloro-2-ethyl-N-(4-(4-(4-(trifluoromethoxy)phenyl)piperidine-1-yl)benzyl)imidazo[1,2-a]pyridine-3-carboxamide], the “solubility in aqueous solutions” value in data set [1] is “rather low solubility”. The activity against tuberculosis result at cytochrome bc1 is listed as “active against tuberculosis”.
